Data on 26 molecules can be found in patent US10526327B2, “Histone demethylase inhibitors” (CELGENE QUANTICEL RESEARCH, INC., priority 2013, dated 2020).

In one assay the target is T1, Jarid1B (Homo sapiens, UniProt Q9UGL1).
T1 construct: purchased BPS Bioscience or custom made by MolecularThroughput 50121
T1 sequence (Q9UGL1 2-751): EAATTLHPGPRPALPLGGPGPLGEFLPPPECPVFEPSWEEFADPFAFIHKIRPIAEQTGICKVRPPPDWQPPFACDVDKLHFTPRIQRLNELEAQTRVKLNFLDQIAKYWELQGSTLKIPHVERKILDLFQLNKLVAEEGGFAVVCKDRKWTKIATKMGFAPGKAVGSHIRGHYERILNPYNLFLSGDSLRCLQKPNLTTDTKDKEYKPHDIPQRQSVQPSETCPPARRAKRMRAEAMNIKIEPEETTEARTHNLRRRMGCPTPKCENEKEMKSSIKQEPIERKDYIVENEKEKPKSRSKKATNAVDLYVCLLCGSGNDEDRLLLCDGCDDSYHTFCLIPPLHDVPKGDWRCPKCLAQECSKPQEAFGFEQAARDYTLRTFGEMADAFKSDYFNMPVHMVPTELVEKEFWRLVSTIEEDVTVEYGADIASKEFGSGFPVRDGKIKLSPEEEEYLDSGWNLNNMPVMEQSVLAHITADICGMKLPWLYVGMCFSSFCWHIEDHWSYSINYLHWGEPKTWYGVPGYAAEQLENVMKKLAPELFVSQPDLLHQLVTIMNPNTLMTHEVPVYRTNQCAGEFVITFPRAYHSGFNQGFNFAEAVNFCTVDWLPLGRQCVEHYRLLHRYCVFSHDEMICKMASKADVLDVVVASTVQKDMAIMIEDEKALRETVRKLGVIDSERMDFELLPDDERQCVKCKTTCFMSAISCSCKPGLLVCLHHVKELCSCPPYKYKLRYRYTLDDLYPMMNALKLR
The experiment in a line: Jarid1B in vitro enzyme inhibition assay (TR-FRET). The format is biochemical. The text has this: (§1) This assay determines the ability of a test compound to inhibit Jarid1A, Jarid1B, and JMJD2C demethylase activity. Baculovirus expressed Jarid1A (GenBank Accession #NM_001042603, AA1-1090) was purchased from BPS Bioscience (Cat#50110). Baculovirus expressed Jarid1B (GenBank Accession #NM_006618, AA 2-751) was purchased from BPS Bioscience (Cat #50121) or custom made by MolecularThroughput. Baculovirus expressed JMJD2C (GenBank Accession #BC143571, AA 2-372) was purchased from BPS Bioscience (Cat#50105).
The ability of test compounds to inhibit the activity of Jarid1B was determined in 384-well plate format under the following reaction conditions: 0.8 nM Jarid1B, 300 nM H3K4me3-biotin labeled peptide (Anaspec cat #64357), 2 μM alpha-ketoglutaric acid in assay buffer of 50 mM HEPES, pH7.3, 0.005% Brij35, 0.5 mM TCEP, 0.2 mg/ml BSA, 50 μM sodium L-ascorbate, and 2 μM ammonium iron(II) sulfate. Reaction product was determined quantitatively by TR-FRET after the addition of detection reagent Phycolink Streptavidin-allophycocyanin (Prozyme) and Europium-anti-mono-or di-methylated histone H3 lysine 4 (H3K4me1-2) antibody (PerkinElmer) in the presence of 5 mM EDTA in LANCE detection buffer (PerkinElmer) at a final concentration of 25 nM and 1 nM, respectively.
(§2) The assay reaction was initiated by the following: 2 μl of the mixture of 900 nM H3K4me3-biotin labeled peptide and 6 μM alpha-ketoglutaric acid with 2 μl of 11-point serial diluted inhibitor in 3% DMSO was added to each well of the plate, followed by the addition of 2 μl of 2.4 nM Jarid1B to initiate the reaction. The reaction mixture was incubated at room temperature for 30 minutes, and terminated by the addition of 6 μl of 5 mM EDTA in LANCE detection buffer containing 50 nM Phycolink Streptavidin-allophycocyanin and 2 nM Europium-anti-H3K4me1-2 antibody. Plates were read by EnVisionMultilabel Reader in TR-FRET mode (excitation at 320 nm, emission at 615 nm and 665 nm) after 1 hour incubation at room temperature. A ratio was calculated (665/615) for each well and fitted to determine inhibition constant (IC50).

The next assay concerns the target T2, JMJD2C (Homo sapiens, UniProt Q9H3R0).
T2 construct: purchased BPS Bioscience 50105
T2 sequence (Q9H3R0 2-372): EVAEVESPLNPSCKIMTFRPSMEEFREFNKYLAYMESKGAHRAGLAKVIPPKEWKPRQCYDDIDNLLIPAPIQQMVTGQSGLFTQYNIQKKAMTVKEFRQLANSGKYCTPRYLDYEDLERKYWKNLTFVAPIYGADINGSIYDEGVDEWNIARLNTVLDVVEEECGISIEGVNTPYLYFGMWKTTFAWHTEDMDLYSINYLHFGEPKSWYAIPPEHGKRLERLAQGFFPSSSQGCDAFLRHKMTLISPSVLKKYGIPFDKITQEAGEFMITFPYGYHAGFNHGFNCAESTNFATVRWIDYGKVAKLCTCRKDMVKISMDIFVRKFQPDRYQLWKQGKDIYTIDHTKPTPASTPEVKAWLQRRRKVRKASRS
The experiment in a line: JMJD2C in vitro enzyme inhibition assay (TR-FRET). In kind it is biochemical.
Description: as §1
The ability of test compounds to inhibit the activity of JMJD2C was determined in 384-well plate format under the following reaction conditions: 0.3 nM JMJD2C, 300 nM H3K9me3-biotin labeled peptide (Anaspec cat #64360), 2 μM alpha-ketoglutaric acid in assay buffer of 50 mM HEPES, pH7.3, 0.005% Brij35, 0.5 mM TCEP, 0.2 mg/ml BSA, 50 μM sodium L-ascorbate, and 2 μM ammonium iron(II) sulfate. Reaction product was determined quantitatively by TR-FRET after the addition of detection reagent Phycolink Streptavidin-allophycocyanin (Prozyme) and Europium-anti-di-methylated histone H3 lysine 9 (H3K9me2) antibody (PerkinElmer) in the presence of 5 mM EDTA in LANCE detection buffer (PerkinElmer) at a final concentration of 50 nM and 1 nM, respectively.
as §2, with “nM H3K9me3-biotin” for “nM H3K4me3-biotin”, “DMSO were” for “DMSO was”, “of 0.9” for “of 2.4”, “nM JMJD2C” for “nM Jarid1B”, “containing 100” for “containing 50”, “nM Europium-anti-H3K9me2” for “nM Europium-anti-H3K4me1-2”
On the technique in general: Time-resolved FRET reads energy transfer from a long-lived donor to a nearby acceptor.

With `OCCOc1nc(O)c2ccncc2n1` [Example 3, 2-(2-hydroxyethoxy)pyrido[3,4-d]pyrimidin-4-ol], the IC50 against Jarid1B and against JMJD2C was 100 to 1000 nM throughout.
As to `Oc1nc(OCc2ccccc2)nc2cnccc12` [Example 4, 2-phenylmethoxypyrido[3,4-d]pyrimidin-4-ol], the IC50 at Jarid1B and against JMJD2C was 100 to 1000 nM throughout.
For the molecule `Oc1nc(OCC2CC2)nc2cnccc12` [Example 5, 2-(cyclopropylmethoxy)-3H-pyrido[3,4-d]pyrimidin-4-one], the IC50 at Jarid1B and at JMJD2C was 100 to 1000 nM in each case.
For `Oc1nc(OC2CCCC2)nc2cnccc12` [Example 6, 2-cyclopentyloxy-3H-pyrido[3,4-d]pyrimidin-4-one], the IC50 at Jarid1B and at JMJD2C was 100 to 1000 nM each time.
Consider `CCCOc1nc(O)c2ccncc2n1` [Example 7, 2-propoxy-3H-pyrido[3,4-d]pyrimidin-4-one], for which the IC50 against Jarid1B and on JMJD2C was 100 to 1000 nM each time.
On to `COc1nc(O)c2ccncc2n1` [Example 8, 2-methoxypyrido[3,4-d]pyrimidin-4-ol], for which the IC50 against Jarid1B and on JMJD2C was 100 to 1000 nM in each case.
Consider `CCC(C)Oc1nc(O)c2ccncc2n1` (stereo not shown) [Example 9, 2-butan-2-yloxy-3H-pyrido[3,4-d]pyrimidin-4-one], for which the IC50 against Jarid1B is 1000 to 10000 nM; against JMJD2C, no more than 100 nM.
The matching figures for `Oc1nc(OCCOc2ccccc2)nc2cnccc12` [Example 10, 2-(2-phenoxyethoxy)-3H-pyrido[3,4-d]pyrimidin-4-one]: 100 to 1000 nM and 100 to 1000 nM.
As to `Oc1nc(OCC2CCC2)nc2cnccc12` [Example 11, 2-(cyclobutylmethoxy)-3H-pyrido[3,4-d]pyrimidin-4-one], the IC50 against Jarid1B and on JMJD2C was 100 to 1000 nM each time.
On to `Oc1nc(OCC(F)(F)F)nc2cnccc12` [Example 12, 2-(2,2,2-trifluoroethoxy)pyrido[3,4-d]pyrimidin-4-ol], for which the IC50 against Jarid1B and at JMJD2C was 100 to 1000 nM in each case.
As for `CC(=O)Nc1ccc(Oc2nc(O)c3ccncc3n2)cc1` [Example 35, N-[4-(4-hydroxypyrido[3,4-d]pyrimidin-2-yl)oxyphenyl]acetamide], the results for the IC50 against Jarid1B and on JMJD2C were no more than 100 nM and 100 to 1000 nM, respectively.
In the case of `CC(C)(C)OC(=O)Nc1cccc(Oc2nc(O)c3ccncc3n2)c1` [Example 36, tert-butyl N-[3-(4-hydroxypyrido[3,4-d]pyrimidin-2-yl)oxyphenyl]carbamate], the IC50 against Jarid1B was no more than 100 nM; against JMJD2C it was 100 to 1000 nM.
`Oc1nc(Oc2ccc(F)c(F)c2)nc2cnccc12` [Example 37, 2-(3,4-difluorophenoxy)pyrido[3,4-d]pyrimidin-4-ol]: the IC50 against Jarid1B and against JMJD2C was no more than 100 nM throughout.
With `COc1ccc(Oc2nc(O)c3ccncc3n2)cc1OC` [Example 38, 2-(3,4-dimethoxyphenoxy)pyrido[3,4-d]pyrimidin-4-ol], the IC50 against Jarid1B was no more than 100 nM; against JMJD2C it was 100 to 1000 nM.
On to `CC(C)c1cccc(Oc2nc(O)c3ccncc3n2)c1` [Example 39, 2-(3-propan-2-ylphenoxy)pyrido[3,4-d]pyrimidin-4-ol], for which the IC50 against Jarid1B is no more than 100 nM; on JMJD2C, 100 to 1000 nM.
The matching figures for `Oc1nc(Oc2cccc(F)c2)nc2cnccc12` [Example 40, 2-(3-fluorophenoxy)pyrido[3,4-d]pyrimidin-4-ol]: no more than 100 nM and no more than 100 nM.
For `Oc1nc(Oc2cccc(Cl)c2)nc2cnccc12` [Example 41, 2-(3-chlorophenoxy)pyrido[3,4-d]pyrimidin-4-ol], the IC50 was no more than 100 nM on Jarid1B and 100 to 1000 nM at JMJD2C.
For `Oc1nc(Oc2cccc(F)c2F)nc2cnccc12` [Example 42, 2-(2,3-difluorophenoxy)pyrido[3,4-d]pyrimidin-4-ol], the IC50 at Jarid1B and on JMJD2C was 100 to 1000 nM in each case.
Regarding `COc1c(F)cc(Oc2nc(O)c3ccncc3n2)cc1F` [Example 43, 2-(3,5-difluoro-4-methoxyphenoxy)pyrido[3,4-d]pyrimidin-4-ol], the concentration for half-maximal inhibition (IC50) against Jarid1B was no more than 100 nM; against JMJD2C, 100 to 1000 nM.
Consider `COc1cccc(Oc2nc(O)c3ccncc3n2)c1` [Example 44, 2-(3-methoxyphenoxy)pyrido[3,4-d]pyrimidin-4-ol], for which the IC50 was no more than 100 nM against Jarid1B and 100 to 1000 nM against JMJD2C.
For `CCOc1c(F)cc(Oc2nc(O)c3ccncc3n2)cc1F` [Example 45, 2-(4-ethoxy-3,5-difluorophenoxy)pyrido[3,4-d]pyrimidin-4-ol], in that order: no more than 100 nM and 100 to 1000 nM.
In the case of `Oc1nc(Oc2ccccc2F)nc2cnccc12` [Example 46, 2-(2-fluorophenoxy)pyrido[3,4-d]pyrimidin-4-ol], the IC50 against Jarid1B and on JMJD2C was 100 to 1000 nM in each case.
For the molecule `Oc1nc(Oc2ccc(F)cc2)nc2cnccc12` [Example 47, 2-(4-fluorophenoxy)pyrido[3,4-d]pyrimidin-4-ol], the IC50 at Jarid1B was no more than 100 nM; against JMJD2C it was 100 to 1000 nM.
Take `COc1ccc(Oc2nc(O)c3ccncc3n2)cc1` [Example 48, 2-(4-methoxyphenoxy)pyrido[3,4-d]pyrimidin-4-ol]: the IC50 at Jarid1B and against JMJD2C was no more than 100 nM in each case.
On to `Oc1nc(Oc2ccc(Cl)cc2)nc2cnccc12` [Example 49, 2-(4-chlorophenoxy)pyrido[3,4-d]pyrimidin-4-ol], for which the IC50 against Jarid1B and against JMJD2C was no more than 100 nM throughout.
Take `CN(C)c1cccc(Oc2nc(O)c3ccncc3n2)c1` [Example 50, 2-[3-(dimethylamino)phenoxy]pyrido[3,4-d]pyrimidin-4-ol]: the half-maximal inhibitory concentration (IC50) against Jarid1B was no more than 100 nM; at JMJD2C, 100 to 1000 nM.

By IC50 is commonly meant the point on the concentration scale where inhibition reaches its midpoint.
